{
  "source": "patent US9434994B2",
  "about": "“Methods for prediction of clinical outcome to epidermal growth factor receptor inhibitors by non-small cell lung cancer patients” (The Regents of the University of Colorado, a body corporate, priority 2004, dated 2016)",
  "origin": "cited, not measured here",
  "system": "chemotherapy resistant NSCLC patients",
  "conditions": "single agent; cited from earlier work",
  "data": [
    {"smiles": "COc1cc2ncnc(Nc3ccc(F)c(Cl)c3)c2cc1OCCCN1CCOCC1", "note": "[gefitinib]", "values": [
      {"measurement": "response rates", "result": "about 10%"}
    ]}
  ]
}
